Drawing on patent US20240409538A1, “SUBSTITUTED TRIAZOLOHETEROARYL COMPOUNDS AS USP1 INHIBITORS AND THE USE THEREOF” (IMPACT THERAPEUTICS (SHANGHAI), INC., priority 2021, published 2024), this text covers IC50 for 21 compounds.

For the first assay, the system named is BRCA mutant human breast cancer MDA-MB-436 cell line. Put plainly: Growth inhibition of MDA-MB-436 cells, CCK-8 method. The conditions noted are these: MDA-MB-436, 168 h, 7 days incubation, read-out: IC50 (nM), inhibition of proliferation of MDA-MB-436 cells, CCK-8 method. It is filed as cell-based. As to the method:
The cells were cultured in complete medium (DMEM medium+10% FBS+Insulin+glutathione). When the confluence reached about 80%, cells were digested and gently dispensed from the bottom of the dish with a 1 mL pipette. Cell suspension was collected and centrifuged at 500 rpm for 3 min. The supernatant was discarded, and the cell pellet were re-suspended in complete medium. The cells were seeded into a culture dish at an appropriate proportion, and then cultured in a 5% CO2 incubator at 37° C. The assay was carried out when the cells were in optimum condition and the confluence was reached 80%. Cells in the logarithmic growth phase were taken to centrifugate, and the culture supernatant was removed. The cells were resuspended in refresh complete medium and counted. The resuspended cells were seeded at 3000/well in a 96-well plate and incubated at 37° C., 5% CO2 incubator overnight. The compound was prepared as below: 1000× dilution tested compound solution to 40× test compound solution by adding 5 μL 1000× compound solution to 120 μL Medium (25-fold dilution). The solution was mixed by oscillation, 0.1% DMSO was used as the control.
The next day, the 96-well plate inoculated with cells was taken out from the incubator, and the culture supernatant was removed. Then fresh medium of 195 uL/well and 5 μL/well of 40× test compound solution as mentioned above were added into the 96 well plate, respectively. Finally, the plate was incubated for 7 days in a 37° C. 5% CO2 incubator. The medium containing compound was changed on the fourth day.
CCK Method: After 7 days, 20 μL of CCK-8 was added to each well and shaken gently, then was cultured for 4 hours. The plate was shaken for 5 min after incubation, the absorbance values of 450 nm or 650 nm wavelengths were recorded respectively (OD=absorbance value of 450 nm−absorbance value of 650 nm) by using the multifunction readout instrument.
Data were analyzed by software GraphPad Prism 6.0. The inhibitory activity of compounds on cell proliferation was plotted using cell survival rate against the compound concentration as coordinates. Cell survival rate %=(ODcompound−ODbackground)/(ODDMSO−ODbackground)×100. The IC50 value was fitted by the s-shaped dose response curve equation: Y=100/(1+10^(log C−log IC50)), and C was the compound concentration.
Table 3 summarizes the inhibitory effect data (IC50) of the compounds on the proliferation of human breast cancer cells MDA-MB-436 determined by CCK-8 method.
For the compound `CC(C)c1ccccc1-c1nc2c(Cc3ccc(-c4nc(C(F)(F)F)cn4C)cc3)ccnn2n1` [Example 9, 2-(2-isopropylphenyl)-8-(4-(1-methyl-4-(trifluoromethyl)-1H-imidazol-2-yl)benzyl)-[1,2,4]triazolo[1,5-b]pyridazine], the IC50 was found to be 1170 nM.

Regarding `CC(C)c1ccccc1-c1nc2cccc(Cc3ccc(-c4nc(C(F)(F)F)cn4C)cc3)n2n1` [Example 10, 2-(2-isopropylphenyl)-5-(4-(1-methyl-4-(trifluoromethyl)-1H-imidazol-2-yl)benzyl)-[1,2,4]triazolo[1,5-a]pyridine], the IC50 came to 226 nM.

In the case of `Cc1cnn(C(C)C)c1-c1nc2cccc(Cc3ccc(-c4nc(C(F)(F)F)cn4C)cc3)n2n1` [Example 15, 2-(1-isopropyl-4-methyl-1H-pyrazol-5-yl)-5-(4-(1-methyl-4-(trifluoromethyl)-1H-imidazol-2-yl)benzyl)-[1,2,4]triazolo[1,5-a]pyridine], the IC50 worked out at 10.3 nM.

For a further assay, the target named is USP1/UAF1 (Homo sapiens (Human), UniProt O94782). In words: USP1/UAF1 activity, ubiquitin-rhodamine110-glycine (Ub-Rho) assay. The conditions noted are these: 0.1 nM USP1/UAF1, 100 nM Ub-Rho, 120 minutes; read-out: IC50 (nM), inhibitory effects on USP1/UAF1 activity. It is filed as biochemical. As for the experimental part: USP1/UAF1 activity was determined by using ubiquitin-rhodamine110-glycine (Ub-Rho; Boston Biochem) assay. Enzymatic reactions were conducted in an assay buffer (50 mM Tris-HCl, pH 7.8, 0.5 mM EDTA, 100 mM NaCl, 1 mM DTT, 0.01 BSA, and 0.01% Tween-20) that contained 0.1 nM USP1/UAF1. Each individual compound was tested at ten concentrations in the range of 0.0005 to 10 μM. The plates were incubated for 15 min to attain equilibrium, and then the enzymatic reaction was initiated by dispensing 10 μL of Ub-Rho solution (100 nM final concentration). After treating 120 minutes with Ub-Rho solution, the rhodamine fluorescence was acquired using a 480 nm excitation/540 nm emission filter set by using Envision instrument. The inhibition rate of the compound to USP1/UAF1 enzyme activity was calculated according to the following formula.
Sequence of USP1/UAF1 (O94782 whole entry): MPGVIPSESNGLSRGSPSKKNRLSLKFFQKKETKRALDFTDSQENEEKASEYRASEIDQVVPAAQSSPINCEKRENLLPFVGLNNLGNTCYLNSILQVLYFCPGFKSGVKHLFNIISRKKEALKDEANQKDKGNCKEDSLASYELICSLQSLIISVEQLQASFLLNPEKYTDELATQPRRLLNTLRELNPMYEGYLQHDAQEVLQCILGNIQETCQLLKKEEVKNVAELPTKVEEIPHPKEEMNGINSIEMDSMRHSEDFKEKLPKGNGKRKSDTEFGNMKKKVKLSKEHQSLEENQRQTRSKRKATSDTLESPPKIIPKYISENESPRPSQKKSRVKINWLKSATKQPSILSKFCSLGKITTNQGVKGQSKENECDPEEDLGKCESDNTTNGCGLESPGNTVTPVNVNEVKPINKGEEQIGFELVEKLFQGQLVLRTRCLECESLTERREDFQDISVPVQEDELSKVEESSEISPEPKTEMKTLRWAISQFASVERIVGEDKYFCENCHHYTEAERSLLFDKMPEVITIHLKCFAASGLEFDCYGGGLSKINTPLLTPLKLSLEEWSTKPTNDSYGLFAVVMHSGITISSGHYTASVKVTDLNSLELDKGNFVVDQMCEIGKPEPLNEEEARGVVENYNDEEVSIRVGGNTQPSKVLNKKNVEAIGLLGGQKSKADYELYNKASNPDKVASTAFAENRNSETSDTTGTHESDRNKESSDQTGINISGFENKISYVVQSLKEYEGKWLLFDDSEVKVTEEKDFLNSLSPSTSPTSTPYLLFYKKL
Sequence of USP1/UAF1 (Q8TAF3 whole entry partner): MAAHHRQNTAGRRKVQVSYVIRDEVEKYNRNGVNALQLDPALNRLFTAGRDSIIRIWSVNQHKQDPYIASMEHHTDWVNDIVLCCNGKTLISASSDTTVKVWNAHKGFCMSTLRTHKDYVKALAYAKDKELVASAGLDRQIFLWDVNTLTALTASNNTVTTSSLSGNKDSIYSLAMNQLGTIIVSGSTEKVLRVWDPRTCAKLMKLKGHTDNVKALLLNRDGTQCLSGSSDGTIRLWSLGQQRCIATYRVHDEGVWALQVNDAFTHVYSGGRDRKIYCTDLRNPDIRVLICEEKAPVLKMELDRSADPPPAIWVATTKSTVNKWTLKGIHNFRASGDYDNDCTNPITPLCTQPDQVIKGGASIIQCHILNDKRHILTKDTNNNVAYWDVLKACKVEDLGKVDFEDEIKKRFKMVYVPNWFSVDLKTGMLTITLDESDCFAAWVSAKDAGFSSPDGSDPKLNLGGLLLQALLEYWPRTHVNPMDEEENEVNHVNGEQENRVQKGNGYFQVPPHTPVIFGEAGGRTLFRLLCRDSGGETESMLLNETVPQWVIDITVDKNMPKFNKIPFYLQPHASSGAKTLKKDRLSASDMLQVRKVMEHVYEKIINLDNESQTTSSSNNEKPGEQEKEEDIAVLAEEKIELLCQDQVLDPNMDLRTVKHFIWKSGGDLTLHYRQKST
IC50 value is obtained by fitting the s-shaped dose response curve equation by using XL Fit software. The curve equation is Y=100/(1+10^(log C−log IC50)). C is the compound concentration.
For the compound `COc1ncnc(C2CC2)c1-c1nc2c(Cc3ccc(-c4nc(C(F)(F)F)cn4C)cc3)nccn2n1` [Example 18, 2-(4-cyclopropyl-6-methoxypyrimidin-5-yl)-8-(4-(1-methyl-4-(trifluoromethyl)-1H-imidazol-2-yl)benzyl)-[1,2,4]triazolo[1,5-a]pyrazine], the IC50 amounted to 11.2 nM.

As for `COc1ncnc(C2CC2)c1-c1nc2ccnc(Cc3ccc(-c4nc(C(F)(F)F)cn4C)cc3)n2n1` [Example 21, 2-(4-cyclopropyl-6-methoxypyrimidin-5-yl)-5-(4-(1-methyl-4-(trifluoromethyl)-1H-imidazol-2-yl)benzyl)-[1,2,4]triazolo[1,5-c]pyrimidine], the IC50 was determined as 16.1 nM.

As for `COc1ncnc(C2CC2)c1-c1nc2c(Cc3ccc(-c4nc(C(F)(F)F)cn4C4CC4)cc3)cccn2n1` [Example 24, 8-(4-(1-cyclopropyl-4-(trifluoromethyl)-1H-imidazol-2-yl)benzyl)-2-(4-cyclopropyl-6-methoxypyrimidin-5-yl)-[1,2,4]triazolo[1,5-a]pyridine], the IC50 turned out to be 11.8 nM.

With `COc1ncnc(C2CC2)c1-c1nc2c(Cc3ccc(-c4nc(C(F)(F)F)cn4C)c(F)c3)cccn2n1` [Example 25, 2-(4-cyclopropyl-6-methoxypyrimidin-5-yl)-8-(3-fluoro-4-(1-methyl-4-(trifluoromethyl)-1H-imidazol-2-yl)benzyl)-[1,2,4]triazolo[1,5-a]pyridine], the IC50 is 11.6 nM.

On to `CCn1cc(C(F)(F)F)nc1-c1c(F)cc(Cc2cccn3nc(-c4c(OC)ncnc4C4CC4)nc23)cc1OC` [Example 26, 2-(4-cyclopropyl-6-methoxypyrimidin-5-yl)-8-(4-(1-ethyl-4-(trifluoromethyl)-1H-imidazol-2-yl)-3-fluoro-5-methoxybenzyl)-[1,2,4]triazolo[1,5-a]pyridine], for which the IC50 was found to be 39.5 nM.

Turning to `COc1ncnc(C2CC2)c1-c1nc2c(Cc3ccc(-c4nc(C(F)(F)F)cn4C4CC4)cc3)nccn2n1` [Example 29, 8-(4-(1-cyclopropyl-4-(trifluoromethyl)-1H-imidazol-2-yl)benzyl)-2-(4-cyclopropyl-6-methoxypyrimidin-5-yl)-[1,2,4]triazolo[1,5-a]pyrazine], the IC50 was found to be 34.6 nM.

On to `COc1ncnc(C2CC2)c1-c1nc2c(Cc3ccc(-c4nc(C(F)(F)F)cn4C)c(F)c3)nccn2n1` [Example 30, 2-(4-cyclopropyl-6-methoxypyrimidin-5-yl)-8-(3-fluoro-4-(1-methyl-4-(trifluoromethyl)-1H-imidazol-2-yl)benzyl)-[1,2,4]triazolo[1,5-a]pyrazine], for which the IC50 was found to be 41.4 nM.

Take `CCn1cc(C(F)(F)F)nc1-c1c(F)cc(Cc2nccn3nc(-c4c(OC)ncnc4C4CC4)nc23)cc1F` [Example 31, 2-(4-cyclopropyl-6-methoxypyrimidin-5-yl)-8-(4-(1-ethyl-4-(trifluoromethyl)-1H-imidazol-2-yl)-3,5-difluorobenzyl)-[1,2,4]triazolo[1,5-a]pyrazine]: the IC50 turned out to be 57.5 nM.

With `COc1ncnc(C2CC2)c1-c1nc2c(Cc3ccc(-c4nc(C(F)(F)F)cn4C4CC4)cc3)cncn2n1` [Example 32, 8-(4-(1-cyclopropyl-4-(trifluoromethyl)-1H-imidazol-2-yl)benzyl)-2-(4-cyclopropyl-6-methoxypyrimidin-5-yl)-[1,2,4]triazolo[1,5-c]pyrimidine], the IC50 is 111 nM.

In the case of `COc1ncnc(C2CC2)c1-c1nc2c(Cc3ccc(-c4nc(C(F)(F)F)cn4C)c(F)c3)cncn2n1` [Example 33, 2-(4-cyclopropyl-6-methoxypyrimidin-5-yl)-8-(3-fluoro-4-(1-methyl-4-(trifluoromethyl)-1H-imidazol-2-yl)benzyl)-[1,2,4]triazolo[1,5-c]pyrimidine], the IC50 was 94.5 nM.

With `CCn1cc(C(F)(F)F)nc1-c1c(F)cc(Cc2cncn3nc(-c4c(OC)ncnc4C4CC4)nc23)cc1F` [Example 34, 2-(4-cyclopropyl-6-methoxypyrimidin-5-yl)-8-(4-(1-ethyl-4-(trifluoromethyl)-1H-imidazol-2-yl)-3,5-difluorobenzyl)-[1,2,4]triazolo[1,5-c]pyrimidine], the IC50 turned out to be 242 nM.

For `COc1ncnc(C2CC2)c1-c1nc2cccc(Cc3ccc(-c4nc(C(F)(F)F)cn4C4CC4)cc3)n2n1` [Example 37, 5-(4-(1-cyclopropyl-4-(trifluoromethyl)-1H-imidazol-2-yl)benzyl)-2-(4-cyclopropyl-6-methoxypyrimidin-5-yl)-[1,2,4]triazolo[1,5-a]pyridine], the IC50 came to 9.53 nM.

As for `COc1ncnc(C2CC2)c1-c1nc2cccc(Cc3ccc(-c4nc(C(F)(F)F)cn4C)c(F)c3)n2n1` [Example 38, 2-(4-cyclopropyl-6-methoxypyrimidin-5-yl)-5-(3-fluoro-4-(1-methyl-4-(trifluoromethyl)-1H-imidazol-2-yl)benzyl)-[1,2,4]triazolo[1,5-a]pyridine], the IC50 was 5.44 nM.

As to `CCn1cc(C(F)(F)F)nc1-c1c(F)cc(Cc2cccc3nc(-c4c(OC)ncnc4C4CC4)nn23)cc1OC` [Example 39, 2-(4-cyclopropyl-6-methoxypyrimidin-5-yl)-5-(4-(1-ethyl-4-(trifluoromethyl)-1H-imidazol-2-yl)-3-fluoro-5-methoxybenzyl)-[1,2,4]triazolo[1,5-a]pyridine], the IC50 is 18.8 nM.

For the compound `CCn1cc(C(F)(F)F)nc1-c1c(F)cc(Cc2nccc3nc(-c4c(OC)ncnc4C4CC4)nn23)cc1F` [Example 42, 2-(4-cyclopropyl-6-methoxypyrimidin-5-yl)-5-(4-(1-ethyl-4-(trifluoromethyl)-1H-imidazol-2-yl)-3,5-difluorobenzyl)-[1,2,4]triazolo[1,5-c]pyrimidine], the IC50 was found to be 732 nM.

In the case of `COc1ncnc(C2CC2)c1-c1nc2cncc(Cc3ccc(-c4nc(C(F)(F)F)cn4C4CC4)cc3)n2n1` [Example 43, 5-(4-(1-cyclopropyl-4-(trifluoromethyl)-1H-imidazol-2-yl)benzyl)-2-(4-cyclopropyl-6-methoxypyrimidin-5-yl)-[1,2,4]triazolo[1,5-a]pyrazine], the IC50 was determined as 38.9 nM.

`COc1ncnc(C2CC2)c1-c1nc2cncc(Cc3ccc(-c4nc(C(F)(F)F)cn4C)c(F)c3)n2n1` [Example 44, 2-(4-cyclopropyl-6-methoxypyrimidin-5-yl)-5-(3-fluoro-4-(1-methyl-4-(trifluoromethyl)-1H-imidazol-2-yl)benzyl)-[1,2,4]triazolo[1,5-a]pyrazine]: the IC50 worked out at 78.3 nM.

Turning to `CCn1cc(C(F)(F)F)nc1-c1c(F)cc(Cc2cncc3nc(-c4c(OC)ncnc4C4CC4)nn23)cc1F` [Example 45, 2-(4-cyclopropyl-6-methoxypyrimidin-5-yl)-5-(4-(1-ethyl-4-(trifluoromethyl)-1H-imidazol-2-yl)-3,5-difluorobenzyl)-[1,2,4]triazolo[1,5-a]pyrazine], the IC50 was 99.7 nM.
